Source: PMC8847695 (Frontiers in Chemistry, 2022)

How the values were obtained:
Format in all cases: binding
Conditions in all cases: 1 = hit, 0 = no hit
[1] = target: T1, CAMK1G (1-320) (Homo sapiens, UniProt Q96NX5); assay: STD-NMR fragment screening, CAMK1G
T1 construct: made in house; host or cells: E. coli BL21 (DE3) pLysS
Method in brief: (§1)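 Saturation-transfer difference NMR was run at 25°C and 700 MHz with 20 µM protein, two fragments at 1 mM each, and 10% DMSO-d6. On-resonance saturation was at 0.5–0.6 ppm and off-resonance at 40 ppm, with a 3 s Gaussian-pulse train. A hit required a difference-spectrum peak at least three times the local noise.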

[2] = target: AAK1 (121-471) (Homo sapiens, UniProt Q2M2I8); assay: STD-NMR fragment screening, AAK1
Chain of AAK1 (121-471) (Q2M2I8 46-315 limits assumed): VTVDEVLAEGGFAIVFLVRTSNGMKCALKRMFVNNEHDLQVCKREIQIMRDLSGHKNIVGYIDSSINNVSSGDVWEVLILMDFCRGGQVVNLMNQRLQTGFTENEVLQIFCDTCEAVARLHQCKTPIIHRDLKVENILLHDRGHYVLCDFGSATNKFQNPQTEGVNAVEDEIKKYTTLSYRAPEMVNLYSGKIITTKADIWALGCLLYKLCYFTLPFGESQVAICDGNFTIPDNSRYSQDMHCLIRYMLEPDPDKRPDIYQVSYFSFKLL
Method in brief: as §1

[3] = target: T2, DOT1L (1-416) (Homo sapiens, UniProt Q8TEK3); assay: STD-NMR fragment screening, DOT1L
T2 construct: made in house; host or cells: E. coli BL21 (DE3) pLysS
T2 sequence (Q8TEK3 1-416): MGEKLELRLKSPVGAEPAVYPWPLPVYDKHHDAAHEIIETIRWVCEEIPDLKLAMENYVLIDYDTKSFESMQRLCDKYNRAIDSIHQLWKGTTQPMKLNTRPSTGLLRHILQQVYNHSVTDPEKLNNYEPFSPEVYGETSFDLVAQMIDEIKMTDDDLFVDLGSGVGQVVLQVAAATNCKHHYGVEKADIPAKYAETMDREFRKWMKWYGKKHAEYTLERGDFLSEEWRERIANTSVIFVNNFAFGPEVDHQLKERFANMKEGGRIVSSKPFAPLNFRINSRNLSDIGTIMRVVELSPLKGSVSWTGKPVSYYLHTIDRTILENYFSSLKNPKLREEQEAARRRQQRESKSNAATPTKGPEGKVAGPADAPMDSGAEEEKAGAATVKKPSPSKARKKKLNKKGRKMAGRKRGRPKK
Method in brief: as §1

[4] = target: T3, IDO1 (1-435) (Homo sapiens, UniProt P14902); assay: STD-NMR fragment screening, IDO1
T3 construct: His-tag of pET15b with TEV site (thrombin site replaced) (cleaved yes); made in house; host or cells: E. coli Rosetta 2 (DE3) pLysS
T3 sequence (P14902 whole entry, the tested form may be a part): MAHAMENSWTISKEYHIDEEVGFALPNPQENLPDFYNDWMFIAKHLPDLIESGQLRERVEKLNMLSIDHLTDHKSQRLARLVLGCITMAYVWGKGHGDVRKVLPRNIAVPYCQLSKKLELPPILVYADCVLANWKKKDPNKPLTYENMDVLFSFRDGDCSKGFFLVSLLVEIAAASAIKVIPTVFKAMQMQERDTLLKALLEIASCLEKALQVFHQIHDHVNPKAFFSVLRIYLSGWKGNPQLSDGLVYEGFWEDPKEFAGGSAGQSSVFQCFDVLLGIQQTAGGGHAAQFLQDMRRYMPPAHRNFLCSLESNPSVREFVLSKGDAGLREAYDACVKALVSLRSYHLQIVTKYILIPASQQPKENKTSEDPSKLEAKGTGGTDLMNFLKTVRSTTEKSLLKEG
Method in brief: as §1

T1 sequence (Q96NX5 1-320): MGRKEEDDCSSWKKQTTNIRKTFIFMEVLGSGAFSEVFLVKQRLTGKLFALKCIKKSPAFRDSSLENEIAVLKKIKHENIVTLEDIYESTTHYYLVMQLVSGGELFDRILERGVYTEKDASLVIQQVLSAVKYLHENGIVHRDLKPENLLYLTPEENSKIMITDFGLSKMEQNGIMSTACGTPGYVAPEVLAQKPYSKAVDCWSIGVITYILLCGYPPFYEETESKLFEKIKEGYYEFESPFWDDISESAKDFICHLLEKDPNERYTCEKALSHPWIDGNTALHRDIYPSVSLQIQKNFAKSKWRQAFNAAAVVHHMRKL

CCOC(Cn1cc(Cl)cn1)OCC [Fragment B02291225]
CAMK1G (STD-NMR hit flag) [1]: 0
AAK1 (STD-NMR hit flag) [2]: 0
DOT1L (STD-NMR hit flag) [3]: 0
IDO1 (STD-NMR hit flag) [4]: 1

NC1CCSc2ccc(Cl)cc21 (stereo not shown) [Fragment B02291226]
CAMK1G (STD-NMR hit flag) [1]: 0
AAK1 (STD-NMR hit flag) [2]: 0
DOT1L (STD-NMR hit flag) [3]: 0
IDO1 (STD-NMR hit flag) [4]: 0

Cc1ccc(C(N)=O)c(Cl)n1 [Fragment B02291227]
CAMK1G (STD-NMR hit flag) [1]: 0
AAK1 (STD-NMR hit flag) [2]: 1
DOT1L (STD-NMR hit flag) [3]: 0
IDO1 (STD-NMR hit flag) [4]: 0

O=C(O)c1csc(Cl)n1 [Fragment B02291228]
CAMK1G (STD-NMR hit flag) [1]: 0
AAK1 (STD-NMR hit flag) [2]: 0
DOT1L (STD-NMR hit flag) [3]: 0
IDO1 (STD-NMR hit flag) [4]: 0

Clc1cccc2nnnn12 [Fragment B02291229]
CAMK1G (STD-NMR hit flag) [1]: 0
AAK1 (STD-NMR hit flag) [2]: 0
DOT1L (STD-NMR hit flag) [3]: 0
IDO1 (STD-NMR hit flag) [4]: 0

Nc1c(Cl)ncnc1NC1CC1 [Fragment B02291230]
CAMK1G (STD-NMR hit flag) [1]: 1
AAK1 (STD-NMR hit flag) [2]: 1
DOT1L (STD-NMR hit flag) [3]: 0
IDO1 (STD-NMR hit flag) [4]: 0

Nc1ccc(Br)cn1 [Fragment B02291232]
CAMK1G (STD-NMR hit flag) [1]: 0
AAK1 (STD-NMR hit flag) [2]: 1
DOT1L (STD-NMR hit flag) [3]: 0
IDO1 (STD-NMR hit flag) [4]: 0

OCc1c(Cl)nc2sccn12 [Fragment B02291233]
CAMK1G (STD-NMR hit flag) [1]: 0
AAK1 (STD-NMR hit flag) [2]: 1
DOT1L (STD-NMR hit flag) [3]: 0
IDO1 (STD-NMR hit flag) [4]: 0

Cn1c(Cl)c(C#N)c(=O)n(C)c1=O [Fragment B02291234]
CAMK1G (STD-NMR hit flag) [1]: 1
AAK1 (STD-NMR hit flag) [2]: 1
DOT1L (STD-NMR hit flag) [3]: 1
IDO1 (STD-NMR hit flag) [4]: 1

OCc1cc2c(cc1Cl)OCO2 [Fragment B02291235]
CAMK1G (STD-NMR hit flag) [1]: 1
AAK1 (STD-NMR hit flag) [2]: 0
DOT1L (STD-NMR hit flag) [3]: 0
IDO1 (STD-NMR hit flag) [4]: 0

O=S(=O)(c1ccc(Cl)s1)N1CCNCC1 [Fragment B02291236]
CAMK1G (STD-NMR hit flag) [1]: 0
AAK1 (STD-NMR hit flag) [2]: 0
DOT1L (STD-NMR hit flag) [3]: 0
IDO1 (STD-NMR hit flag) [4]: 0

CC(C)c1nsc(Cl)n1 [Fragment B02291237]
CAMK1G (STD-NMR hit flag) [1]: 0
AAK1 (STD-NMR hit flag) [2]: 0
DOT1L (STD-NMR hit flag) [3]: 0
IDO1 (STD-NMR hit flag) [4]: 0

Nc1ncc(F)cc1I [Fragment B02291238]
CAMK1G (STD-NMR hit flag) [1]: 0
AAK1 (STD-NMR hit flag) [2]: 0
DOT1L (STD-NMR hit flag) [3]: 0
IDO1 (STD-NMR hit flag) [4]: 0

O=C(O)c1ccnc(Cl)c1 [Fragment B02291239]
CAMK1G (STD-NMR hit flag) [1]: 0
AAK1 (STD-NMR hit flag) [2]: 0
DOT1L (STD-NMR hit flag) [3]: 0
IDO1 (STD-NMR hit flag) [4]: 0

Clc1cnccn1 [Fragment B02291240]
CAMK1G (STD-NMR hit flag) [1]: 0
AAK1 (STD-NMR hit flag) [2]: 0
DOT1L (STD-NMR hit flag) [3]: 0
IDO1 (STD-NMR hit flag) [4]: 0

Clc1ccc(CN2CCNCC2)s1 [Fragment B02291241]
CAMK1G (STD-NMR hit flag) [1]: 0
AAK1 (STD-NMR hit flag) [2]: 0
DOT1L (STD-NMR hit flag) [3]: 0
IDO1 (STD-NMR hit flag) [4]: 0

NCc1cc(Cl)c2c(c1)OCCCO2 [Fragment B02291242]
CAMK1G (STD-NMR hit flag) [1]: 0
AAK1 (STD-NMR hit flag) [2]: 0
DOT1L (STD-NMR hit flag) [3]: 0
IDO1 (STD-NMR hit flag) [4]: 0

Cc1nn(CC(=O)O)c(C)c1Cl [Fragment B02291243]
CAMK1G (STD-NMR hit flag) [1]: 1
AAK1 (STD-NMR hit flag) [2]: 0
DOT1L (STD-NMR hit flag) [3]: 0
IDO1 (STD-NMR hit flag) [4]: 1

Nc1cc(Cl)cc([N+](=O)[O-])c1O [Fragment B02291244]
CAMK1G (STD-NMR hit flag) [1]: 0
AAK1 (STD-NMR hit flag) [2]: 0
DOT1L (STD-NMR hit flag) [3]: 0
IDO1 (STD-NMR hit flag) [4]: 0
